Data on 20 compounds can be found in US11331314B2, “Amine substituted triazole derivatives and uses thereof” (Bayer Pharma Aktiengesellschaft, priority 2017, dated 2022).

One assay has as its target human V1a receptor (Homo sapiens, UniProt P37288). The experiment in a line: Cellular in vitro assay for determining vasopressin receptor activity, V1a receptor cell line (photoprotein luminescence). It is filed as cell-based. The conditions noted are these: for IC50: CHO cell line transfected with the human V1a receptor, agonist [Arg8]-vasopressin at EC50 concentration, read-out: IC50 hV1a; for ratio IC50 hV2/hV1a: selectivity ratio of the cellular IC50 values. The essentials: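 CHO K1 cells stably expressing human V1a receptor with aequorin photoprotein, loaded overnight with coelenterazine. Compounds preincubated 10 min at various concentrations, then challenged with [Arg^8]-vasopressin at EC50 concentration. Calcium-driven luminescence read immediately; IC50 values derived.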

The next assay deals with T1, human V2 receptor (Homo sapiens, UniProt P30518).
T1 construct: expressed in transfected cells; host or cells: CHO K1 (ATCC) expressing firefly luciferase under a CRE-responsive promoter
The experiment in a line: Cellular in vitro assay for determining vasopressin receptor activity, V2 receptor cell line (CRE-luciferase). In kind it is cell-based. The conditions noted are these: CHO cell line transfected with the human V2 receptor; agonist [Arg8]-vasopressin at EC50 concentration; read-out: IC50 hV2.

human V1a receptor, sequence (P37288 whole entry): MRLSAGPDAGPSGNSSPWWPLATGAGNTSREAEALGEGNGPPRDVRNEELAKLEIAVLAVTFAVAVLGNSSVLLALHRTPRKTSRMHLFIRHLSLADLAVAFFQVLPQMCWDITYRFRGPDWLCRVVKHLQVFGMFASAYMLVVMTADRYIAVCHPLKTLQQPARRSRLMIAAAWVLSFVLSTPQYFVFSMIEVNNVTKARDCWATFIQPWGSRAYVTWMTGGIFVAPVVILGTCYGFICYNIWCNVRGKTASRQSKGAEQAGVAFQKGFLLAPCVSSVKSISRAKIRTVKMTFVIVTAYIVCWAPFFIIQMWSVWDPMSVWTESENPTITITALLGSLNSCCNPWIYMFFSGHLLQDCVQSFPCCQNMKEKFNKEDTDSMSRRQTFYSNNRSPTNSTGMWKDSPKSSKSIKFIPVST
T1 sequence (P30518 whole entry): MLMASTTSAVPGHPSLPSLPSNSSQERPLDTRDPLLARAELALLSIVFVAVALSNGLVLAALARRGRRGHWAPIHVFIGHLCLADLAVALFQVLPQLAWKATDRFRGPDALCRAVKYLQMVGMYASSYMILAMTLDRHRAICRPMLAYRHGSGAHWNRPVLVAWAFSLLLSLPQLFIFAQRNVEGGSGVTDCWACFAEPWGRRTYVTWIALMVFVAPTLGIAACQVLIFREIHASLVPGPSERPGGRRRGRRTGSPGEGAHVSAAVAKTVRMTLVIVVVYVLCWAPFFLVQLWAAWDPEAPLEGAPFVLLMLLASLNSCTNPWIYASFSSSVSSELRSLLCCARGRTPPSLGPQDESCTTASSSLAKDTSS

As to `O=C1CCC(Nc2nc(Cn3nc(-c4ccc(Cl)cc4)n(C[C@H](O)C(F)(F)F)c3=O)nn2CCC(F)(F)F)CN1` (mixture of isomers) [Example 99, 5-{[3-({3-(4-Chlorophenyl)-5-oxo-4-[(2S)-3,3,3-trifluoro-2-hydroxypropyl]-4,5-dihydro-1H-1,2,4-triazol-1-yl}methyl)-1-(3,3,3-trifluoropropyl)-1H-1,2,4-triazol-5-yl]amino}piperidin-2-one], at human V1a receptor, the IC50 came to 10.2 nM and the “ratio IC50 hV2/hV1a” value was 34.5. Moreover, at human V2 receptor, the IC50 was 350 nM.

Regarding `O=C1NCC(CNc2nc(Cn3nc(-c4ccc(Cl)cc4)n(C[C@H](O)C(F)(F)F)c3=O)nn2-c2ccccc2Cl)O1` (mixture of isomers) [Example 12, 5-(4-Chlorophenyl)-2-{[1-(2-chlorophenyl)-5-({[2-oxo-1,3-oxazolidin-5-yl]methyl}amino)-1H-1,2,4-triazol-3-yl]methyl}-4-[(2S)-3,3,3-trifluoro-2-hydroxypropyl]-2,4-dihydro-3H-1,2,4-triazol-3-one], the figures for the IC50 on human V1a receptor and on human V2 receptor were 1.2 nM and 2.45 nM, respectively. For the same compound, the “ratio IC50 hV2/hV1a” value on human V1a receptor is reported as 2.0.

On to `O=C1NCCC1Nc1nc(Cn2nc(-c3ccc(Cl)cc3)n(C[C@H](O)C(F)(F)F)c2=O)nn1-c1ccccc1Cl` (single isomer, unassigned) [Example 17], for which, on human V1a receptor, the IC50 is 0.5 nM and the “ratio IC50 hV2/hV1a” value is recorded as 3.8. Moreover, the concentration for half-maximal inhibition (IC50) on human V2 receptor was found to be 1.9 nM.

For `O=c1n(Cc2nc(N3CCOC(C(F)(F)F)C3)n(CCC(F)(F)F)n2)nc(-c2ccc(Cl)cc2)n1C[C@H](O)C(F)(F)F` (single isomer, unassigned) [Example 104], at human V1a receptor, the IC50 was 30.5 nM and the “ratio IC50 hV2/hV1a” value is 12.0. The IC50 at human V2 receptor stood at 365 nM.

Turning to `COCCNc1nc(Cn2nc(-c3ccc(Cl)cc3)n(C[C@H](O)C(F)(F)F)c2=O)nn1-c1cccc(F)c1` [Example 116, 5-(4-Chlorophenyl)-2-({1-(3-fluorophenyl)-5-[(2-methoxyethyl)amino]-1H-1,2,4-triazol-3-yl}methyl)-4-[(2S)-3,3,3-trifluoro-2-hydroxypropyl]-2,4-dihydro-3H-1,2,4-triazol-3-one], on human V1a receptor, the IC50 stood at 1.35 nM and the “ratio IC50 hV2/hV1a” value was found to be 1.5. Further, the IC50 at human V2 receptor is 1.98 nM.

Regarding `CC(C)(CNc1nc(Cn2nc(-c3ccc(Cl)cc3)n(C[C@H](O)C(F)(F)F)c2=O)nn1-c1ccccc1Cl)C(N)=O` [Example 5, 3-{[1-(2-Chlorophenyl)-3-({3-(4-chlorophenyl)-5-oxo-4-[(2S)-3,3,3-trifluoro-2-hydroxypropyl]-4,5-dihydro-1H-1,2,4-triazol-1-yl}methyl)-1H-1,2,4-triazol-5-yl]amino}-2,2-dimethylpropanamide], on human V1a receptor, the IC50 was 0.64 nM and the “ratio IC50 hV2/hV1a” value amounted to 6.0. Besides, the IC50 on human V2 receptor stood at 3.8 nM.

In the case of `O=c1n(Cc2nc(N3CCOC(C(F)(F)F)C3)n(CCC(F)(F)F)n2)nc(-c2ccc(Cl)cc2)n1C[C@H](O)C(F)(F)F` (mixture of isomers) [Example 103, 5-(4-Chlorophenyl)-4-[(2S)-3,3,3-trifluoro-2-hydroxypropyl]-2-({5-[2-(trifluoromethyl)morpholin-4-yl]-1-(3,3,3-trifluoropropyl)-1H-1,2,4-triazol-3-yl}methyl)-2,4-dihydro-3H-1,2,4-triazol-3-one], at human V1a receptor, the IC50 stood at 30 nM and the “ratio IC50 hV2/hV1a” value turned out to be 8.2. In addition, the IC50 on human V2 receptor came to 245 nM.

On to `O=C1CC[C@@H](CNc2nc(Cn3nc(-c4ccc(Cl)cc4)n(C[C@H](O)C(F)(F)F)c3=O)nn2CCC(F)(F)F)N1` [Example 109, 5-(4-Chlorophenyl)-2-{[5-({[(2S)-5-oxopyrrolidin-2-yl]methyl}amino)-1-(3,3,3-trifluoropropyl)-1H-1,2,4-triazol-3-yl]methyl}-4-[(2S)-3,3,3-trifluoro-2-hydroxypropyl]-2,4-dihydro-3H-1,2,4-triazol-3-one], for which, on human V1a receptor, the IC50 amounted to 9.4 nM and the “ratio IC50 hV2/hV1a” value came to 41.0. Besides, the IC50 at human V2 receptor was 385 nM.

As for `O=CN1CCC(Nc2nc(Cn3nc(-c4ccc(Cl)cc4)n(C[C@H](O)C(F)(F)F)c3=O)nn2-c2ccccc2Cl)C1` (mixture of isomers) [Example 41, 3-{[1-(2-Chlorophenyl)-3-({3-(4-chlorophenyl)-5-oxo-4-[(2S)-3,3,3-trifluoro-2-hydroxypropyl]-4,5-dihydro-1H-1,2,4-triazol-1-yl}methyl)-1H-1,2,4-triazol-5-yl]amino}pyrrolidine-1-carbaldehyde], on human V1a receptor, the IC50 stood at 0.93 nM and the “ratio IC50 hV2/hV1a” value was determined as 8.0. The IC50 at human V2 receptor came to 7.4 nM.

For the compound `O=c1n(Cc2nc(N3CCNC(C(F)(F)F)C3)n(-c3ccccc3Cl)n2)nc(-c2ccc(Cl)cc2)n1C[C@H](O)C(F)(F)F` (single isomer, unassigned) [Example 67], the half-maximal inhibitory concentration (IC50) on human V1a receptor was determined as 1.16 nM; on human V2 receptor it was 22 nM. The “ratio IC50 hV2/hV1a” value on human V1a receptor came to 19.0.

For `NC(=O)C1CN(c2nc(Cn3nc(-c4ccc(Cl)cc4)n(C[C@H](O)C(F)(F)F)c3=O)nn2-c2ccccc2Cl)C1` [Example 74, 1-[1-(2-Chlorophenyl)-3-({3-(4-chlorophenyl)-5-oxo-4-[(2S)-3,3,3-trifluoro-2-hydroxypropyl]-4,5-dihydro-1H-1,2,4-triazol-1-yl}methyl)-1H-1,2,4-triazol-5-yl]azetidine-3-carboxamide], on human V1a receptor, the IC50 turned out to be 0.48 nM and the “ratio IC50 hV2/hV1a” value is reported as 7.5. In addition, the IC50 at human V2 receptor is 3.6 nM.

Turning to `NC(=O)[C@@H]1CC(F)(F)CN1c1nc(Cn2nc(-c3ccc(Cl)cc3)n(C[C@H](O)C(F)(F)F)c2=O)nn1-c1ccccc1Cl` [Example 9, 1-[1-(2-Chlorophenyl)-3-({3-(4-chlorophenyl)-5-oxo-4-[(2S)-3,3,3-trifluoro-2-hydroxypropyl]-4,5-dihydro-1H-1,2,4-triazol-1-yl}methyl)-1H-1,2,4-triazol-5-yl]-4,4-difluoro-L-prolinamide], at human V1a receptor, the IC50 is 0.89 nM and the “ratio IC50 hV2/hV1a” value stood at 18.8. Further, the IC50 on human V2 receptor amounted to 16.7 nM.

As for `O=C1CCC(CNc2nc(Cn3nc(-c4ccc(Cl)cc4)n(C[C@H](O)C(F)(F)F)c3=O)nn2-c2ccccc2Cl)N1` (single isomer, unassigned) [Example 65], at human V1a receptor, the IC50 stood at 0.63 nM and the “ratio IC50 hV2/hV1a” value was 10.2. Further, the IC50 at human V2 receptor is 6.45 nM.

In the case of `O=c1n(Cc2nc(N3CCOCC3)n(-c3cccc(F)c3)n2)nc(-c2ccc(Cl)cc2)n1C[C@H](O)C(F)(F)F` [Example 119, 5-(4-Chlorophenyl)-2-{[1-(3-fluorophenyl)-5-(morpholin-4-yl)-1H-1,2,4-triazol-3-yl]methyl}-4-[(2S)-3,3,3-trifluoro-2-hydroxypropyl]-2,4-dihydro-3H-1,2,4-triazol-3-one], the IC50 was 7.79 nM on human V1a receptor and 17.1 nM on human V2 receptor. For the same compound, the “ratio IC50 hV2/hV1a” value on human V1a receptor worked out at 2.2.

Turning to `O=c1n(Cc2nc(N3CCNC(C(F)(F)F)C3)n(-c3ccccc3Cl)n2)nc(-c2ccc(Cl)cc2)n1C[C@H](O)C(F)(F)F` (single isomer, unassigned) [Example 68], on human V1a receptor, the IC50 was 0.45 nM and the “ratio IC50 hV2/hV1a” value is reported as 30.3. Further, on human V2 receptor, the IC50 came out at 13.5 nM.

In the case of `NC(=O)C1CN(c2nc(Cn3nc(-c4ccc(Cl)cc4)n(C[C@H](O)C(F)(F)F)c3=O)nn2-c2ccccc2Cl)CCN1` (mixture of isomers) [Example 33, 4-[1-(2-Chlorophenyl)-3-({3-(4-chlorophenyl)-5-oxo-4-[(2S)-3,3,3-trifluoro-2-hydroxypropyl]-4,5-dihydro-1H-1,2,4-triazol-1-yl}methyl)-1H-1,2,4-triazol-5-yl]piperazine-2-carboxamide], at human V1a receptor, the IC50 was determined as 0.37 nM and the “ratio IC50 hV2/hV1a” value was 25.2. For the same compound, the IC50 on human V2 receptor was 9.25 nM.

With `CCOC(=O)CNc1nc(Cn2nc(-c3ccc(Cl)cc3)n(C[C@H](O)C(F)(F)F)c2=O)nn1-c1cccc(Cl)c1` [Example 115, Ethyl N-[1-(3-chlorophenyl)-3-({3-(4-chlorophenyl)-5-oxo-4-[(2S)-3,3,3-trifluoro-2-hydroxypropyl]-4,5-dihydro-1H-1,2,4-triazol-1-yl}methyl)-1H-1,2,4-triazol-5-yl]glycinate], at human V1a receptor, the IC50 was determined as 5.86 nM and the “ratio IC50 hV2/hV1a” value worked out at 0.4. In addition, the IC50 on human V2 receptor was determined as 2.07 nM.

In the case of `CC(C)(N)CNc1nc(Cn2nc(-c3ccc(Cl)cc3)n(C[C@H](O)C(F)(F)F)c2=O)nn1-c1ccccc1` [Example 94, 2-({5-[(2-Amino-2-methylpropyl)amino]-1-phenyl-1H-1,2,4-triazol-3-yl}methyl)-5-(4-chlorophenyl)-4-[(2S)-3,3,3-trifluoro-2-hydroxypropyl]-2,4-dihydro-3H-1,2,4-triazol-3-one], the concentration for half-maximal inhibition (IC50) is 4.3 nM at human V1a receptor and 95.5 nM at human V2 receptor. Also, the “ratio IC50 hV2/hV1a” value at human V1a receptor worked out at 22.2.

Consider `CC1(C)CN(c2nc(Cn3nc(-c4ccc(Cl)cc4)n(C[C@H](O)C(F)(F)F)c3=O)nn2CCC(F)(F)F)CCN1` [Example 114, 5-(4-Chlorophenyl)-2-{[5-(3,3-dimethylpiperazin-1-yl)-1-(3,3,3-trifluoropropyl)-1H-1,2,4-triazol-3-yl]methyl}-4-[(2S)-3,3,3-trifluoro-2-hydroxypropyl]-2,4-dihydro-3H-1,2,4-triazol-3-one], for which the concentration for half-maximal inhibition (IC50) on human V1a receptor is 10.3 nM; on human V2 receptor it was 1800 nM.

As for `CC(C)(N)CNc1nc(Cn2nc(-c3ccc(Cl)cc3)n(C[C@H](O)C(F)(F)F)c2=O)nn1-c1ncccc1Cl` [Example 95, 2-({5-[(2-Amino-2-methylpropyl)amino]-1-(3-chloropyridin-2-yl)-1H-1,2,4-triazol-3-yl}methyl)-5-(4-chlorophenyl)-4-[(2S)-3,3,3-trifluoro-2-hydroxypropyl]-2,4-dihydro-3H-1,2,4-triazol-3-one], the concentration for half-maximal inhibition (IC50) on human V1a receptor came out at 0.86 nM; on human V2 receptor, 727 nM. Besides, the “ratio IC50 hV2/hV1a” value at human V1a receptor came out at 845.9.

Usually IC50 stands for the concentration that gives 50% inhibition.
